Experimental data reported in paper PMC9104902, “Spiro-Oxindole Skeleton Compounds Are Efficient Inhibitors for Indoleamine 2,3-Dioxygenase 1: An Attractive Target for Tumor Immunotherapy” (International Journal of Molecular Sciences, 2022).
Entries after “also recorded” stand apart in the source; their conditions may differ.

Assays:
[1] = target: T1, IDO1 expressed in MCF-7 cells (Homo sapiens, UniProt P14902); experiment: IDO1 inhibitory assay in cell lines (kynurenine, IFN-γ induced), MCF-7; assay type: cell-based; settings: MCF7; 100 μM inhibitor concentration
T1 construct: endogenous in cells; host or cells: MCF-7 (IFN-γ induced)
Description: (§1) IDO1 cellular activity assay was carried out by standard literature protocols. […] First of all, cells grew in high glucose DMEM medium containing 10% FBS and antibiotics. […] Then, 1 × 10^4 cells were seeded in 96-well plates and cultivated in carbon dioxide incubator at 37 °C containing 5% CO2 for 24 h. On day two, each well in the plates were treated with fresh DMEM medium, which contained L-Trp (20 μg/mL), IFN-γ (10 ng/mL), and different concentrations of inhibitor. The plate was incubated for 48 h further. Then, 140 μL of supernatant from each well was transferred into centrifuge tubes correlatively. An amount of 10 μL of 30% trichloroacetic acid (w/v) was added to each tube aimed to precipitate proteins. Subsequently, sample incubation (65 °C, 30 min) was required to make the N′-formylkynurenine (NFK) change into kynurenine which was the final product. Soon afterwards, the sample was centrifuged at 8000 rpm for 10 min. An amount of 100 μL supernatant from each tube was transferred into a new 96-well plate with an equal amount of 2% pDMAB added. The concentration of kynurenine could be measured because it reacts with pDMAB to form a product with a UV–vis absorption at 492 nm. To estimate cell viability, 1 × 10^4 normal cells named L02 were seeded in 96-well flat bottom plates with a final volume of 200 μL of DMEM complete growth medium. After being incubated for 24 h at 37 °C, the culture was replaced by a fresh complete growth medium (200 μL) and four inhibitors (200 μM) were added individually. Then, 48 h later, the medium was replaced by PBS (180 μL) mixed with CCK8 solution (20 μL) in each well. Cell viability was evaluated by testing the OD450nm. Finally, all data in cell experiments were processed by GraphPad Prism 7.00 to obtain the IDO1 inhibitory percentage of each inhibitor in the cells and the cell viability.

[2] = target: T2, IDO1 expressed in 4T1 cells (Mus musculus, UniProt P28776); experiment: IDO1 inhibitory assay in cell lines (kynurenine, IFN-γ induced), 4T1; assay type: cell-based; settings: 100 μM inhibitor concentration
T2 construct: endogenous in cells; host or cells: 4T1 (IFN-γ induced)
Description: as §1

[3] = target: IDO1 expressed in CT26 cells (Mus musculus, UniProt P28776); experiment: IDO1 inhibitory assay in cell lines (kynurenine, IFN-γ induced), CT26; assay type: cell-based; settings: 100 μM inhibitor concentration
Description: as §1

IDO1 [4] = target: T3, IDO1 (Homo sapiens, UniProt P14902); experiment: Enzyme-based IDO1 inhibitory assay (UV–vis, product at 320 nm); assay type: biochemical; settings: for IC50: 100 μM L-Trp, mean ± SD, three determinations; for Ki: L-Trp 50, 100, 150 μM, [S]/[V] against [I] plot (Cornish-Bowden); for Type of Inhibition: position of intersections in [S]/[V] against [I] plot
Description: The IDO1 inhibitory assay was performed according to standard literature protocols with some modifications. The UV–vis method was used for evaluating the inhibitory activity of inhibitors against IDO1. Specifically, IDO1 (1 μM, 1 mL) was prepared by phosphate buffer (100 mM, pH 6.5) containing catalase (200 μg/mL), methylene blue (10 μM), and ascorbic acid (10 mM, pH 6.5). Concentrations of every inhibitor were varied from 1 to 200 μM, and experimental samples were incubated at 37 °C for 10 min. Then, a certain concentration of L-Trp was added before monitoring the product at 320 nm by UV–vis spectrophotometer immediately.
The inhibition percent of each inhibitor was determined by [1 − (A/B)] × 100%, where A is the enzymatic activity of IDO1 with inhibitor added and B is the absence of the inhibitor. […] The plot was described by the percent inhibition against Log10 concentration of the inhibitor.
Ki values of inhibitors were obtained by intersection of the three fitted lines in the plot, which was the absolute value of the X-axis value of the intersection. The plot was described by [S]/[V] against inhibitor concentration, where [S] and [V] were the substrate concentration and the reaction velocity, respectively. Furthermore, protein-inhibitor binding modes were determined by the position of the intersections in the plot. Data processing was performed by Origin 7.5.

[5] = target: IDO1 expressed in HeLa cells (Homo sapiens, UniProt P14902); experiment: IDO1 inhibitory assay in cell lines (kynurenine, IFN-γ induced), HeLa; assay type: cell-based; settings: 100 μM inhibitor concentration
Description: as §1

IDO1 [6] = target: T3, IDO1; experiment: Determination of the inhibition types (reversible or irreversible; [V] versus [E] plot); assay type: biochemical; settings: 100 μM inhibitor, 100 μM L-Trp
Description: Based on the results of UV–vis spectra, the determination of inhibitory types was carried out according to the reference. The inhibitor was defined as reversible if the fitted lines were intersected in the plot (Figure 4A).
Different concentrations of IDO1 (1 mL) were prepared with 100 mM phosphate buffer (pH 6.5) containing methylene blue (10 μM), catalase (200 μg/mL), and ascorbic acid (10 mM, pH 6.5). Each sample was incubated at 37 °C for 10 min. An amount of 100 μM L-Trp was added before measuring by UV–vis spectrophotometer at 320 nm. The only difference for the other set of groups was 100 μM inhibitor was added in each sample before incubating. The data were analyzed by Origin 7.5, and plot of reaction rate [V] versus enzyme amount [E] was proposed using linear fit. The determination of inhibitory types was based on the linear trend of the fitted plot.

T3 sequence (P14902 whole entry): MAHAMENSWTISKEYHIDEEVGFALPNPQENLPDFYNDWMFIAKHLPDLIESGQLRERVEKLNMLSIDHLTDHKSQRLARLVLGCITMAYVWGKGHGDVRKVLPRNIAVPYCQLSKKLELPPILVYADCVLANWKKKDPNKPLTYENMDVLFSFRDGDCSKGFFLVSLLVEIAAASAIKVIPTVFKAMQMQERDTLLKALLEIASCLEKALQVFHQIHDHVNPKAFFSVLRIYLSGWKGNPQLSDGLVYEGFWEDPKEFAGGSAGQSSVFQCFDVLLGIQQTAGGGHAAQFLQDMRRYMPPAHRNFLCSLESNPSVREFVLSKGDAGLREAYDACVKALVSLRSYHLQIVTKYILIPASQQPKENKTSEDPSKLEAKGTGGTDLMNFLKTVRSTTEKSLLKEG
T1 sequence (P14902 whole entry): as above
IDO1 expressed in HeLa cells, sequence (P14902 whole entry): as above
IDO1 expressed in CT26 cells, sequence (P28776 whole entry): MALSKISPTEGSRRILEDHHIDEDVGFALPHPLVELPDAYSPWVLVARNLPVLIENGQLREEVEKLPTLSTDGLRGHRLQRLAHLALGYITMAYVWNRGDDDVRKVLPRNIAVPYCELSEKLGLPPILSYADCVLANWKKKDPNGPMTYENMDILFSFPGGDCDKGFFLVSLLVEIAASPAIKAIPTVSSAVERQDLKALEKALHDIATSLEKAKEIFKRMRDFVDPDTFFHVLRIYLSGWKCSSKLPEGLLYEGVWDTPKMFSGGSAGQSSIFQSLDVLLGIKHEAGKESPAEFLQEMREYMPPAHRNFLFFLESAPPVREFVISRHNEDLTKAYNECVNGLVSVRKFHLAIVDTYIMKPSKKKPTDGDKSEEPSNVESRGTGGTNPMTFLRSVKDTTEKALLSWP
T2 sequence (P28776 whole entry): as above

inhibition at 100 µM [1] | inhibition at 100 µM [2] | inhibition at 100 µM [3] | IC50 (IDO1 [4]) | Ki (IDO1 [4]) | Type of Inhibition (IDO1 [4]) | inhibition at 100 µM [5] | increase of inhibitory activity by substituent modification (IDO1 [4]; IC50, methoxyl group at 6-position versus inhibitors 1 and 2) | IDO1 inhibitory activity (IC50) relative to positive control 4−PI (IDO1 [4]; IC50 ratio versus 4−PI) | Inhibition type (reversible or irreversible) (IDO1 [6]) | Structure (SMILES)
22.4 ± 0.4% | 4.2 ± 1% | 4.2 ± 0.5% | 29.4 ± 1.3 µM | 49.5 ± 6 µM | Uncompetitive | 27.1 ± 2.1% |  |  |  | COC(=O)[C@H]1N[C@@H](c2ccccc2)[C@@]2(C(=O)Nc3cc(C)ccc32)[C@@H]1c1ccccc1 [inhibitor 2]
27.8 ± 0.3% | 4.3 ± 0.1% | 6.4 ± 0.8% | 7.9 ± 1.7 µM | 63.6 ± 3.5 µM | Uncompetitive | 26.7 ± 0.7% | 3 times | ~six-fold; also recorded: ~six times | reversible | COC(=O)[C@H]1N[C@@H](c2ccccc2)[C@@]2(C(=O)Nc3cc(OC)ccc32)[C@@H]1c1ccccc1 [inhibitor 3]
23.7 ± 2% | 2.6 ± 0.6% | 3.7 ± 0.8% | 25.2 ± 3.6 µM | 42.3 ± 0.8 µM | Uncompetitive | 25.5 ± 1.5% |  |  |  | COC(=O)[C@H]1N[C@@H](c2ccccc2)[C@@]2(C(=O)Nc3ccccc32)[C@@H]1c1ccccc1 [inhibitor 1]
20.7 ± 0.1% | 2.8 ± 0.3% | 1.7 ± 0.5% | 64.6 ± 3.9 µM | 101 ± 4.4 µM | Uncompetitive | 25.6 ± 1.3% |  |  |  | COC(=O)[C@@H]1N[C@H](c2ccc(Br)cc2)[C@]2(C(=O)Nc3ccccc32)[C@H]1c1ccccc1 [inhibitor 4]
